Tests used:
[1] = 12-month dog toxicity and toxicokinetic study; format: in vivo; details: for Cmax / Tmax / AUC(0-t): beagle, plasma, po; for AUC(0-t): read-out: AUC0-24; for body weight lower than control: Week 52
Experimental: Blood samples were collected on Days 0, 91, 181, 268 and 358 from up to 4 animals/gender/group. Plasma samples collected on Days 91, 181, 268, as well as all plasma samples collected from the control group were not evaluated.
For toxicology assessment four dogs of each gender were included in each group. Assessments included clinical observations, body weight, and food consumption measures which were recorded periodically during the study. Ophthalmic examinations were performed during Weeks 1, 12, 25, 38, 51, and 55 (recovery period). Electrocardiograms were recorded during Weeks 2, 12, 25, 38, and 51. Clinical pathology evaluations (hematology, serum chemistry, and urinalysis) were performed during Weeks 1, 12, 25, 38, 52, and 56 (recovery period). At termination, complete necropsies were performed on all dogs and selected organs were weighed. Selected tissues from the control and 20 (15) mg/kg/day group animals and animals euthanized in extremis were examined microscopically. Sections of livers from dogs in the control and 20 (15) mg/kg/day groups were collected at both the primary and 4-week post-treatment recovery necropsies for assessment of drug metabolism enzyme (microsomal cytochrome P450) activity.

[2] = Rat developmental toxicity study with toxicokinetics; format: in vivo; details: for AUC(0-t) / Cmax / Tmax: female, Crl:CD(SD)IGS BR, rat, in vivo, pregnant rats; for AUC(0-t): read-out: AUC0-24
Source text: For the toxicology assessment, there were twenty-five mated females/group.
Females that delivered early were necropsied on the day of delivery. […] The fetuses were weighed, sexed, and examined for external, visceral, and skeletal malformations and developmental variations.

[3] = system: Salmonella typhimurium and Escherichia coli tester strains; test: Bacterial reverse mutation assay (Ames); format: cell-based; details: up to 5000 μg/plate, with and without S9
in vitro = in vitro ADME; details: human, Caco-2, pH 7.4
Experimental: (§1) (Kalamazoo, Mich.). […] Receiver solutions consisted of buffer only. Sequential samples of transported solute are taken at 20 minute intervals in duplicate over 2 hours and the concentration of the transported compound was determined by HPLC-UV/MS. Test sample concentration is determined by LC/MS. Permeability coefficients are calculated for each sampling interval, and averages from the intervals were determined. The apparent permeability coefficient Papp is calculated from the equation where dQ/dt is the rate of permeation of drug across the cells, C0 is the original concentration in donor compartment at time zero, and A is the area of the cell monolayer. Mass balance in the system is ascertained by comparing the sum of transported solute and remaining donor solute to the starting solution concentration. The integrity of the monolayers is verified by monitoring Lucifer yellow permeation and the known P-glycoprotein substrate […] is used as a positive control.

Caco-2 cells = test: in vitro; format: in vitro ADME; details: human, Caco-2, 2 h, 10 μM, pH 7.4
Experimental: as §1

[4] = In vitro metabolism in human hepatocytes; details: male, human, 4 h, 87 μM
Experimental: Cryopreserved human hepatocytes (male) that are prepared by XenoTech, LLC (Lenexa, Kans.), are thawed on the day of use and resuspended in Waymouth's incubation media. The enzymatic activity of hepatocytes is monitored using 7-ethoxycoumarin and 7-hydroxycoumarin as substrates. […] The incubations are carried out for 4 hours with 1×10^6 viable cells/ml. […] At 0 and 4 hour, cell suspensions are extracted using two volumes of ice cold methanol. After centrifugation, the extracts are stored at −20° C. until further sample processing. The solvent in the samples are dried under a stream of nitrogen, and resuspended in methanol:water (1:1) before analysis.
The extracts of the 4 hour incubation mixture are analyzed by liquid chromatography/electrospray ionization-mass spectrometry (LC/ESI-MS) in the positive and negative ion modes to screen for possible metabolites. HPLC Methods 1 and 2 are used to find potential metabolites, and the HPLC and mass spectrometry systems are described in Table 56. The same instrumentation and methods in HPLC Method 1 are used in HPLC Method 2 with the exception that the mobile phases and gradient are changed to 0.4% HCOOH in H2O for mobile A and CH3OH for mobile phase B. The mass spectrometer is LCQ™ Ion Trap Mass Spectrometer and is in either the positive or negative electrospray mode with the ion spray set at 4.5 kV. The capillary temperature is 250° C., the nitrogen sheath gas flow rate is ˜80 unit, the auxiliary nitrogen gas flow rate is 20 unit, and the collision gas is helium.

[5] = system: FMO, human liver microsome (HLM); test: FMO dependent metabolism (pre-incubation temperature), human liver microsomes
Experimental: The microsomal incubation mixtures (ca. 0.2 mL) were prepared in triplicate in 0.1M potassium phosphate buffer (pH 7.4) containing 0.25 mg/mL microsomal protein (RLM and HLM), 1 mM EDTA, 4 mM MgCl2, and […]. Incubation mixtures were pre-incubated aerobically in a shaking water bath at 37° C. and 45° C. respectively for ca. 5 minutes. The reaction was initiated by the addition of NADPH (final concentration of 1 mM). […] For the positive controls, benzydamine (Sigma-Aldrich, St. Louis, Mo.) (final concentration 200 μM) was used in the incubation mixture. For the negative controls, water was used in the incubation mixtures instead of microsome protein. The mixtures were kept at ca. −20° C. before analysis by LC-MS/MS.
The incubation of benzydamine (positive control, 200 μM) was carried out concurrently and the formation of benzydamine N-oxide was monitored by LC-MS/MS.

[6] = female, dog, 2 mg/kg/day, females, 2 mg/kg/day, Day 0
[7] = female, dog, 2 mg/kg/day, females, 2 mg/kg/day, Day 358
[8] = female, dog, 6 mg/kg/day, females, 6 mg/kg/day, Day 0
[9] = female, dog, 6 mg/kg/day, females, 6 mg/kg/day, Day 358
[10] = female, dog, 15 mg/kg/day, females, 20 (15) mg/kg/day, Day 358
[11] = female, dog, 20 mg/kg/day, females, 20 (15) mg/kg/day, Day 0
[12] = male, dog, 2 mg/kg/day, males, 2 mg/kg/day, Day 0
[13] = male, dog, 2 mg/kg/day, males, 2 mg/kg/day, Day 358
[14] = male, dog, 6 mg/kg/day, males, 6 mg/kg/day, Day 0
[15] = male, dog, 6 mg/kg/day, males, 6 mg/kg/day, Day 358
[16] = male, dog, 15 mg/kg/day, males, 20 (15) mg/kg/day, Day 358
[17] = male, dog, 20 mg/kg/day, males, 20 (15) mg/kg/day, Day 0
[18] = po, 3 mg/kg/day, 3 mg/kg/day, GD 6
[19] = po, 3 mg/kg/day, 3 mg/kg/day, GD 17
[20] = po, 20 mg/kg/day, 20 mg/kg/day, GD 6
[21] = po, 20 mg/kg/day, 20 mg/kg/day, GD 17

For `Clc1ccc([C@]23CNC[C@H]2C3)cc1Cl` [amitifadine, (+)-1-(3,4-dichlorophenyl)-3-azabicyclo[3.1.0]hexane], which Cmax [1, 6] is on record?
Its Cmax is 615 ng/mL.

What about the Tmax [1, 6] of the same compound?
Its Tmax is 1 h.

What about the AUC(0-t) [1, 6] of the same compound?
The AUC(0-t) was 1580 ng·h/mL.

What about the Cmax [1, 7] of the same compound?
The Cmax was 1150 ng/mL.

And the Tmax [1, 7]?
Its Tmax is 1 h.

What about the AUC(0-t) [1, 7] of the same compound?
The AUC(0-t) was 3990 ng·h/mL.

What about the Cmax [1, 8] of the same compound?
Its Cmax is 3680 ng/mL.

And the Tmax [1, 8]?
Its Tmax is 1.3 h.

And the AUC(0-t) [1, 8]?
Its AUC(0-t) is 10800 ng·h/mL.

What about the Cmax [1, 9] of the same compound?
The Cmax was 2420 ng/mL.

What about the Tmax [1, 9] of the same compound?
Its Tmax is 1 h.

What about the AUC(0-t) [1, 9] of the same compound?
Its AUC(0-t) is 11100 ng·h/mL.

And the Cmax [1, 10]?
The Cmax was 5800 ng/mL.

What about the Tmax [1, 10] of the same compound?
The Tmax was 1.2 h.

And the AUC(0-t) [1, 10]?
The AUC(0-t) was 19600 ng·h/mL.

And the Cmax [1, 11]?
The Cmax was 6880 ng/mL.

And the Tmax [1, 11]?
Its Tmax is 1 h.

What about the AUC(0-t) [1, 11] of the same compound?
The AUC(0-t) was 24100 ng·h/mL.

What about the “body weight lower than control” value ([1]; females, 6 mg/kg/day) of the same compound?
Its value is 12%.

And the “body weight lower than control” value ([1]; females, 20 (15) mg/kg/day)?
The value was 14%.

What about the Cmax [1, 12] of the same compound?
The Cmax was 1040 ng/mL.

What about the Tmax [1, 12] of the same compound?
Its Tmax is 1.3 h.

And the AUC(0-t) [1, 12]?
Its AUC(0-t) is 2130 ng·h/mL.

What about the Cmax [1, 13] of the same compound?
The Cmax was 844 ng/mL.

What about the Tmax [1, 13] of the same compound?
Its Tmax is 1 h.

And the AUC(0-t) [1, 13]?
Its AUC(0-t) is 2220 ng·h/mL.

What about the Cmax [1, 14] of the same compound?
Its Cmax is 3250 ng/mL.

What about the Tmax [1, 14] of the same compound?
The Tmax was 1.3 h.

And the AUC(0-t) [1, 14]?
Its AUC(0-t) is 10500 ng·h/mL.

And the Cmax [1, 15]?
Its Cmax is 2780 ng/mL.

What about the Tmax [1, 15] of the same compound?
Its Tmax is 1.3 h.

What about the AUC(0-t) [1, 15] of the same compound?
The AUC(0-t) was 15800 ng·h/mL.

What about the Cmax [1, 16] of the same compound?
The Cmax was 4830 ng/mL.

And the Tmax [1, 16]?
The Tmax was 1.2 h.

And the AUC(0-t) [1, 16]?
The AUC(0-t) was 18100 ng·h/mL.

And the Cmax [1, 17]?
Its Cmax is 7980 ng/mL.

And the Tmax [1, 17]?
Its Tmax is 1 h.

What about the AUC(0-t) [1, 17] of the same compound?
The AUC(0-t) was 29600 ng·h/mL.

What about the “body weight lower than control” value ([1]; males, 6 mg/kg/day) of the same compound?
The value was 5%.

And the “body weight lower than control” value ([1]; males, 20 (15) mg/kg/day)?
Its value is 15%.

What about the AUC(0-t) ([2]; oral, 10 mg/kg/day, 10 mg/kg/day, GD 17) of the same compound?
The AUC(0-t) was 11200 ng·h/mL.

What about the Cmax [2, 18] of the same compound?
The Cmax was 387 ng/mL.

And the AUC(0-t) [2, 18]?
Its AUC(0-t) is 2570 ng·h/mL.

What about the Cmax [2, 19] of the same compound?
Its Cmax is 397 ng/mL.

And the AUC(0-t) [2, 19]?
The AUC(0-t) was 2620 ng·h/mL.

What about the AUC(0-t) ([2]; po, 10 mg/kg/day, 10 mg/kg/day, GD 6) of the same compound?
The AUC(0-t) was 10900 ng·h/mL.

What about the Cmax ([2]; po, 10 mg/kg/day, 10 mg/kg/day, GD 17) of the same compound?
The Cmax was 1300 ng/mL.

And the Cmax [2, 20]?
Its Cmax is 1970 ng/mL.

And the AUC(0-t) [2, 20]?
The AUC(0-t) was 19500 ng·h/mL.

And the Cmax [2, 21]?
Its Cmax is 1890 ng/mL.

And the AUC(0-t) [2, 21]?
Its AUC(0-t) is 19700 ng·h/mL.

What about the Tmax ([2]; po, 3 mg/kg/day, GD 6) of the same compound?
Its Tmax is 2 h.

What about the Tmax ([2]; po, 10 mg/kg/day, GD 6) of the same compound?
Its Tmax is 2 h.

What about the Tmax ([2]; po, 20 mg/kg/day, GD 6) of the same compound?
The Tmax was 2 h.

What about the “NOEL for developmental toxicity” value ([2]; oral gavage GD 6-17) of the same compound?
Its value is 10 mg/kg/day.

What about the “bacterial reverse mutation assay outcome” value [3] of the same compound?
Its value is “negative in the bacterial reverse mutation assay”.

What about the recovery at 2 h, 10 μM (in vitro) of the same compound?
Its recovery at 2 h, 10 μM is 62%.

And the “Mass balance, AP→BL” value (Caco-2 cells)?
The value was 62%.

And the “Mass balance, BL→AP” value (Caco-2 cells)?
The value was “(88%)”.

What about the “remains unchanged after 4 hour incubation” value ([4]; hepatocytes) of the same compound?
Its value is 82.4%.

For `O=C1NCC2(c3ccc(Cl)c(Cl)c3)CC12` (stereo not drawn) [EB-10101, 5-(3,4-dichloro-phenyl)-3-aza-bicyclo[3.1.0]hexan-2-one], which “AUC0-24 of metabolite relative to parent drug, any individual animal” value ([1]; dog, in vivo) is on record?
Its value is ≤ 3.5 fold.

And the “FMO mediation of formation” value [5]?
The value was “not FMO-mediated in humans”.

And the “share of the metabolites formed” value [4]?
Its value is “about 63%”.
